Results: PubChem BioAssay AID248 (DTP/NCI, 2004)
“And” between values parts separate entries of the source, which are not always exact repeats. Identical values can stand only once. Toxic doses and inconclusive results are not listed. Cut-off read from the data, not from the text of the source: active = T/C of 150% or more; inactive = T/C below 125%.

System: L1210 leukemia ip in BDF1 mice, survival T/C
Assay: NCI In Vivo Anticancer Drug Screen. Data for tumor model L1210 Leukemia (intraperitoneal) in B6D2F1 (BDF1) mice
Settings: endpoint: mean survival time, higher = longer survival
In short: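 Tumor was transplanted into mice, which were then dosed with test compound or vehicle alone. Survival was recorded for each group, and the treated figure was expressed relative to the control figure.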

[1] = dose: 100.0 mg/kg/injection, schedule: Q04DX003 (ip), vehicle: saline
[2] = dose: 50.0 mg/kg/injection, schedule: Q01DX009 (ip), vehicle: Klucel (hydroxypropylcellulose) (HPC)
[3] = dose: 75.0 mg/kg/injection, schedule: Q04DX003 (ip), vehicle: Klucel (hydroxypropylcellulose) (HPC)
[4] = dose: 150.0 mg/kg/injection, schedule: Q04DX003 (ip), vehicle: Klucel (hydroxypropylcellulose) (HPC)
[5] = dose: 300.0 mg/kg/injection, schedule: Q04DX003 (ip), vehicle: Klucel (hydroxypropylcellulose) (HPC)
[6] = dose: 100.0 mg/kg/injection, schedule: Q01DX001 (ip), vehicle: saline
[7] = dose: 200.0 mg/kg/injection, schedule: Q01DX001 (ip), vehicle: saline
[8] = dose: 400.0 mg/kg/injection, schedule: Q01DX001 (ip), vehicle: saline
[9] = dose: 100.0 mg/kg/injection, schedule: Q01DX009 (ip), vehicle: saline with Tween-80
[10] = dose: 100.0 mg/kg/injection, schedule: Q04DX003 (ip), vehicle: saline with Tween-80
[11] = dose: 100.0 mg/kg/injection, schedule: Q01DX009 (ip), vehicle: Klucel (hydroxypropylcellulose) (HPC)
[12] = dose: 200.0 mg/kg/injection, schedule: Q01DX009 (ip), vehicle: Klucel (hydroxypropylcellulose) (HPC)
[13] = dose: 100.0 mg/kg/injection, schedule: Q04DX002 (ip), vehicle: saline with Tween-80
[14] = dose: 200.0 mg/kg/injection, schedule: Q04DX002 (ip), vehicle: saline with Tween-80
[15] = dose: 400.0 mg/kg/injection, schedule: Q04DX002 (ip), vehicle: saline with Tween-80

Measured: T/C

O=C1NC(c2ccccc2)(c2ccccc2)C(=O)N1CC1CO1 (centres undefined)
inactive: dose: 100.0 mg/kg/injection, schedule: Q01DX009 (ip), vehicle: saline 100 % of control | [1] 103 % of control | dose: 200.0 mg/kg/injection, schedule: Q01DX009 (ip), vehicle: saline 91 % of control | dose: 200.0 mg/kg/injection, schedule: Q04DX003 (ip), vehicle: saline 102 % of control | dose: 400.0 mg/kg/injection, schedule: Q01DX009 (ip), vehicle: saline 93 % of control | dose: 400.0 mg/kg/injection, schedule: Q04DX003 (ip), vehicle: saline 97 % of control

COc1cccc2c1C(=O)c1c(O)c3c(c(O)c1C2=O)CC(O)(C(C)=O)CC3OC1CC(NC(=O)C(F)(F)F)C(O)C(C)O1 (centres undefined)
inactive: dose: 0.25 mg/kg/injection, schedule: Q04DX003 (ip), vehicle: water 96 % of control | dose: 0.5 mg/kg/injection, schedule: Q04DX003 (ip), vehicle: water 95 % of control | dose: 1.0 mg/kg/injection, schedule: Q04DX003 (ip), vehicle: water 106 % of control | dose: 2.0 mg/kg/injection, schedule: Q04DX003 (ip), vehicle: water 111 % of control | dose: 4.0 mg/kg/injection, schedule: Q04DX003 (ip), vehicle: water 98 % of control | dose: 8.0 mg/kg/injection, schedule: Q04DX003 (ip), vehicle: water 90 % of control | dose: 14.0 mg/kg/injection, schedule: Q04DX003 (ip), vehicle: water 107 % of control | dose: 16.0 mg/kg/injection, schedule: Q04DX003 (ip), vehicle: water 101 % of control | dose: 21.0 mg/kg/injection, schedule: Q04DX003 (ip), vehicle: water 113 % of control | dose: 25.0 mg/kg/injection, schedule: Q04DX003 (ip), vehicle: water 110 % of control | dose: 32.0 mg/kg/injection, schedule: Q04DX003 (ip), vehicle: water 110 % of control | dose: 50.0 mg/kg/injection, schedule: Q04DX003 (ip), vehicle: water 107 % of control and 112 % of control | dose: 100.0 mg/kg/injection, schedule: Q04DX003 (ip), vehicle: water 112 % of control

CCOP(=O)(/C(C#N)=C/c1ccccc1)c1ccccc1 (centres undefined)
inactive: [2] 95 % of control | dose: 75.0 mg/kg/injection, schedule: Q01DX009 (ip), vehicle: Klucel (hydroxypropylcellulose) (HPC) 96 % of control | [3] 101 % of control | dose: 150.0 mg/kg/injection, schedule: Q01DX009 (ip), vehicle: Klucel (hydroxypropylcellulose) (HPC) 93 % of control | [4] 98 % of control | [5] 91 % of control

CC(c1ccccc1)n1cnc2c(=S)nc[nH]c21 (centres undefined)
inactive: [6] 92 % of control | [7] 95 % of control | [8] 103 % of control

CCc1ccc(NC2=NCCO2)cc1
inactive: dose: 12.5 mg/kg/injection, schedule: Q04DX003 (ip), vehicle: saline 112 % of control | dose: 25.0 mg/kg/injection, schedule: Q01DX009 (ip), vehicle: Klucel (hydroxypropylcellulose) (HPC) 100 % of control | dose: 25.0 mg/kg/injection, schedule: Q04DX003 (ip), vehicle: saline 114 % of control | [2] 95 % of control | dose: 50.0 mg/kg/injection, schedule: Q04DX003 (ip), vehicle: saline 101 % of control | [1] 102 % of control

COC(=O)CCC1([N+](=O)[O-])CCCCC1
inactive: dose: 16.5 mg/kg/injection, schedule: Q01DX009 (ip), vehicle: saline with Tween-80 96 % of control | dose: 25.0 mg/kg/injection, schedule: Q01DX009 (ip), vehicle: saline with Tween-80 94 % of control | dose: 25.0 mg/kg/injection, schedule: Q04DX003 (ip), vehicle: saline with Tween-80 100 % of control | dose: 37.5 mg/kg/injection, schedule: Q01DX009 (ip), vehicle: saline with Tween-80 99 % of control | dose: 50.0 mg/kg/injection, schedule: Q01DX009 (ip), vehicle: saline with Tween-80 100 % of control | dose: 50.0 mg/kg/injection, schedule: Q04DX003 (ip), vehicle: saline with Tween-80 102 % of control | [9] 94 % of control | [10] 105 % of control

Cc1ncc(C(=O)Nc2ccccc2)[nH]1
inactive: [11] 113 % of control | dose: 100.0 mg/kg/injection, schedule: Q04DX003 (ip), vehicle: Klucel (hydroxypropylcellulose) (HPC) 105 % of control | [12] 106 % of control | dose: 200.0 mg/kg/injection, schedule: Q04DX003 (ip), vehicle: Klucel (hydroxypropylcellulose) (HPC) 122 % of control

Oc1ccc(Br)cc1C=Nc1ccccc1
inactive: [13] 96 % of control | [14] 104 % of control | [15] 100 % of control

O=C(/C=N/O)c1cccnc1
inactive: [10] 97 % of control

CCOC(=O)CC(C)(C)C1CC1
inactive: dose: 50.0 mg/kg/injection, schedule: Q01DX001 (ip), vehicle: saline 91 % of control | [6] 96 % of control | [7] 96 % of control | [8] 94 % of control

Cc1cc(OCCOC(=O)Nc2ccc(F)cc2)ccc1Cl
inactive: [11] 106 % of control | [12] 101 % of control | dose: 400.0 mg/kg/injection, schedule: Q01DX009 (ip), vehicle: Klucel (hydroxypropylcellulose) (HPC) 101 % of control

CCCCS(=O)(=O)c1ccc(OC)c(NC(C)=O)c1
inactive: [3] 103 % of control | dose: 100.0 mg/kg/injection, schedule: Q01DX001 (ip), vehicle: Klucel (hydroxypropylcellulose) (HPC) 98 % of control | [4] 96 % of control | dose: 200.0 mg/kg/injection, schedule: Q01DX001 (ip), vehicle: Klucel (hydroxypropylcellulose) (HPC) 107 % of control | [5] 107 % of control | dose: 400.0 mg/kg/injection, schedule: Q01DX001 (ip), vehicle: Klucel (hydroxypropylcellulose) (HPC) 100 % of control

COC(=O)CC(C(=O)OC)N1CC1 (centres undefined)
inactive: dose: 75.0 mg/kg/injection, schedule: Q01DX001 (ip), vehicle: carboxymethylcellulose (CMC) 101 % of control

O=S1(=O)CC(c2ccccc2)(c2ccccc2)N1
inactive: dose: 100.0 mg/kg/injection, schedule: Q04DX002 (ip), vehicle: Klucel (hydroxypropylcellulose) (HPC) 108 % of control | dose: 200.0 mg/kg/injection, schedule: Q04DX002 (ip), vehicle: Klucel (hydroxypropylcellulose) (HPC) 112 % of control | dose: 400.0 mg/kg/injection, schedule: Q04DX002 (ip), vehicle: Klucel (hydroxypropylcellulose) (HPC) 96 % of control

O=C(O)C1=C2C(=O)Nc3cccc(c32)C2(C1)C(=O)Nc1ccccc12 (centres undefined)
inactive: [13] 103 % of control | [14] 103 % of control | [15] 103 % of control

C=CCNC(=S)Nc1cccc(C(C)OC(=O)NC(C)(C)C)c1 (centres undefined)
inactive: [9] 106 % of control | [10] 95 % of control | dose: 200.0 mg/kg/injection, schedule: Q01DX009 (ip), vehicle: saline with Tween-80 107 % of control | dose: 200.0 mg/kg/injection, schedule: Q04DX003 (ip), vehicle: saline with Tween-80 93 % of control | dose: 400.0 mg/kg/injection, schedule: Q04DX003 (ip), vehicle: saline with Tween-80 94 % of control

CC(=O)C(C(C)=O)c1ccccc1.CC(=O)C(C(C)=O)c1ccccc1.[Ni]
inactive: dose: 6.0 mg/kg/injection, schedule: Q01DX009 (ip), vehicle: saline 94 % of control | dose: 12.0 mg/kg/injection, schedule: Q01DX009 (ip), vehicle: saline 94 % of control | dose: 25.0 mg/kg/injection, schedule: Q01DX009 (ip), vehicle: saline 102 % of control

CC(CN=Cc1ccccc1[O-])N=Cc1ccccc1[O-].[O]=[V] (centres undefined)
inactive: dose: 5.0 mg/kg/injection, schedule: Q01DX009 (ip), vehicle: saline with Tween-80 94 % of control | dose: 10.0 mg/kg/injection, schedule: Q01DX009 (ip), vehicle: saline with Tween-80 91 % of control | dose: 20.0 mg/kg/injection, schedule: Q01DX009 (ip), vehicle: saline with Tween-80 97 % of control

O=C1OC(=O)c2ccc(SCC(O)CCl)c3cccc1c23 (centres undefined)
inactive: dose: 25.0 mg/kg/injection, schedule: Q01DX009 (ip), vehicle: other 98 % of control | dose: 50.0 mg/kg/injection, schedule: Q01DX009 (ip), vehicle: other 93 % of control | dose: 100.0 mg/kg/injection, schedule: Q01DX009 (ip), vehicle: other 93 % of control and 109 % of control
